For two compounds, IC50 results are on record in ChEMBL document CHEMBL4321797, “New Approaches to Cancer Therapy: Combining Fatty Acid Amide Hydrolase (FAAH) Inhibition with Peroxisome Proliferator-Activated Receptors (PPARs) Activation” (J Med Chem, 2019).

What is called IC50 is the midpoint of a concentration-inhibition curve.

In assay [1] the target is T1, Fatty-acid amide hydrolase 1 (Homo sapiens, UniProt O00519).
T1 sequence (O00519 whole entry): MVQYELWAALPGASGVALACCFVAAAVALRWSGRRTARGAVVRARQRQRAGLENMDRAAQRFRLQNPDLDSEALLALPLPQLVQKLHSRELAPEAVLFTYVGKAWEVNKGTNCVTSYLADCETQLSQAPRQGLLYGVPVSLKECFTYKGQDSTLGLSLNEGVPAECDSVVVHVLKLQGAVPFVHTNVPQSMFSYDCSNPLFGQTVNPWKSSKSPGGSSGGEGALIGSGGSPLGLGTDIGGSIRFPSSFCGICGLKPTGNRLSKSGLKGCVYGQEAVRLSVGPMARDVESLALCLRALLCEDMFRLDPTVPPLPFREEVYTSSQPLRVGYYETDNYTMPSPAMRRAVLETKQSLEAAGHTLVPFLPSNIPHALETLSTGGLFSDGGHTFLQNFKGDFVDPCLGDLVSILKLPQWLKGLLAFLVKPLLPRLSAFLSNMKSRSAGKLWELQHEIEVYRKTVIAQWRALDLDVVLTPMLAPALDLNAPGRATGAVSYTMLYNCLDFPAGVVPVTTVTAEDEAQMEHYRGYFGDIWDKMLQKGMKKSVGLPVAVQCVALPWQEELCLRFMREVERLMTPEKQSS
As to the kind of experiment: Inhibition of FAAH (unknown origin).

The target of assay [2] is T1, Fatty-acid amide hydrolase 1. As to the kind of experiment: Inhibition of recombinant human C-terminal FLAG-tagged FAAH expressed in HEK293T cells preincubated for 4 hrs followed by addition of FP-TAMRA probe and measured after 20 mins by SDS-PAGE based fluorescence assay. The class given is cell-based.

`CCCCC/C=C\C/C=C\C/C=C\C/C=C\CCCC(=O)NCCc1c[nH]c2ccc(O)cc12` yielded a half-maximal inhibitory concentration (IC50) in assay [1] of 5.6 µM. As to `CN(C(=O)n1cnc(-c2ccc[n+]([O-])c2)c1)C1CCCCC1`, the 50% inhibitory concentration (IC50) in assay [2] amounted to 0.049 µM.
